Measurements: patent US20220395500A1, “SMALL MOLECULE ACTIVATORS OF INTERFERON REGULATORY FACTOR 3 AND METHODS OF USE THEREOF” (Neuralexo, Inc., priority 2020, published 2022)
Like-named read-outs stand apart in the source and are kept apart here.

Key:
[1] = system: IRF-Lucia luciferase reporter (ISRE) in THP1-Dual cells; assay: THP1-Dual IRF-Lucia luciferase reporter assay (ISRE activation); assay type: cell-based, human; conditions: Homo sapiens, THP1-Dual, read-out: THP1 IRF EC50
Procedure: (§1) THP1 Dual (InvivoGen) cell suspensions were cultured in RPMI 1640 (Hyclone, Logan, Utah) supplemented with 10% fetal bovine serum (Hyclone), 100 U/mL Normocin (Invivogen), and 50 U/mL PenStrep (Gibco, Dublin, Ireland) between a density of 7·10^5-2·10^6 cells/mL. Every other passage, media was supplemented with 5 U/mL Blasticidin and 100 U/mL Zeocin to maintain the expression constructs. White, flat-bottom 384-well plates (Greiner, Kremsmunster, Austria, 781080) were seeded with 2.5·10^4 cells/well in a total of 50 μL media containing 5 ng/mL phorbolmyristic acid (PMA) using a Matrix WellMate (Thermo Scientific) dispenser. After 48 hours of incubation at 37° C., media was removed using a BioTek ELx405 CW plate washer set to aspirate and wash each well three times with 65 μL 1×PBS. Plates were reloaded with 50 μL media without PMA and treatments added. Lipopolysaccharide in dimethylsulfoxide (DMSO) was transferred to control wells using a HP D300 microdispenser to a final concentration of 313 ng/mL. Compounds from chemical library plates were copied using a Sciclone (Caliper LifeSciences) mounted with a 384-pin transfer tool to obtain a final concentration of 10 μM. After incubation with treatments for 24 hours, 10 μL of supernatant media from each well was transferred into a white, flat-bottom 384-well plate for luminescence readout and a black-walled, clear flat-bottom 384-well plate for absorbance readout.
(§2) Specifically, to enable screening of novel chemical entities (NCEs) in a larger screening effort, a robust high-throughput cell-based assay system for primary hit identification of ISRE activators based on the above-mentioned target validation was desired. Human ISRE activity was verified using a THP-1 monocyte line containing the NF-κB-SEAP and IRF-Lucia luciferase dual reporter (THP1-Dual; Invivogen) that features two reporter genes, SEAP (secreted embryonic alkaline phosphatase) and Lucia luciferase, thereby enabling the simultaneous study of the NF-κB and IRF signalling pathways. The Lucia luciferase reporter is under the control of an ISG54 (interferon-stimulated gene) minimal promoter in conjunction with five IFN-stimulated response elements. The SEAP gene is driven by an IFN-β minimal promoter fused to five copies of the NF-κB consensus transcriptional response element and three copies of the c-Rel binding site. Both reporter proteins are readily measurable in the cell culture supernatant when using QUANTI-LUC™ and QUANTI-Blue SEAP detection reagents.
The responsiveness of the human THP-1 Dual cell line was evaluated in an array of assay conditions to obtain sensitive and reproducible results for the activation of IRF and NF-κB reporters. […] All transfer steps are fully automated using high throughput robotic equipment. Briefly, cells are seeded in differentiation medium using a Matrix WellMate fitted with the WellMate Stacker (Thermo Scientific) and incubated at 37° C. with 5% CO2 for 48 h. Following differentiation, cells are washed using a BioTek ELx405 Select CW plate washer and growth medium added with the Matrix WellMate. Programmed control treatments are added to wells using a D300 digital dispenser fitted with T8+ dispense heads (Hewlett Packard) designed to dispense nanoliter quantities of material. Compounds from library plates are added using a pin tool fitted to a Sciclone ALH 3000 Workstation (Caliper Life Sciences) programmed with Maestro v4.4. After treatment, plates are returned to incubators for 24 hours. To measure reporter expression, supernatant is collected using the Sciclone and dispensed into 2 plates: 1) a white 384-well assay plate for Lucia luminescence measurements and 2) a clear-bottom black 384-well assay plate for SEAP absorbance measurements.

[2] = THP1-Dual cytotoxicity (Cell Titer Glo, ATP); assay type: cell-based, human; conditions: human, THP1-Dual cells, read-out: Thp1 cytotox CC50
Summary of the method: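 Human THP1-Dual cells were treated across an 8-point dose-response range. Cytotoxicity was measured in-plate by CellTiter-Glo luminescence, which quantifies ATP as a marker of metabolically active cells, and CC50 was taken as the 50% cytotoxic concentration.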

[3] = system: IRF-Lucia luciferase reporter (ISRE) in J774-Dual cells; assay: J774-Dual IRF-Lucia luciferase reporter assay (ISRE activation); assay type: cell-based, mouse; conditions: for EC50: Mus musculus, read-out: J774 IRF EC50
Procedure: First, optimal assay conditions and assay quality in 384-well format were determined. As mentioned, the mouse macrophage J774 cell line (J774-Dual, InvivoGen) stably transfected with the same inducible reporters described above (e.g., IRF-Lucia luciferase and NF-κB-SEAP) was used. The responsiveness of the J774-Dual cell line was investigated in an array of assay conditions to obtain sensitive and reproducible results for the activation of the IRF and NF-κB reporters. An optimal plating density and conditions for these cells was established for these cells in a 384-well format. Assay work-flow is similar to that discussed above for the THP1-Dual assay without a need for cell differentiation. Thus, cells are seeded directly in growth medium and incubated at 37° C. in a 5% C02 incubator for 24 hours prior to the programmed treatments being added as described herein.
The primary high throughput screen used the HTS platform of human THP1 monocyte cells containing the IRF-Lucia luciferase and NFκB-SEAP (secreted embryonic alkaline phosphatase) dual reporter (THP1-Dual, Invivogen), enabling the simultaneous study of the IRF and NFκB signaling pathways respectively. As discussed, the Lucia luciferase reporter gene is under the control of an ISG54 (interferon-stimulated gene) minimal promoter in conjunction with five interferon-stimulated response elements (ISRE). The SEAP gene is driven by an IFNβ minimal promoter fused to five copies of the NFκB consensus transcriptional response element and three copies of the c-Rel binding site. Both IRF-Lucia luciferase and NFκB-SEAP reporter proteins are secreted and readily measurable in the cell culture supernatant when using QUANTI-Luc™ and QUANTI-Blue™ detection reagents, respectively. Identified “hits” were confirmed in a secondary screen with an 8-point dose response curve. Hits were further screened for activity in the mouse using the mouse J774 macrophage-like cell line containing the identical reporter constructs (J774-Dual, Invivogen).
The OTRADI Small Molecule Library of approximately 246,000 diverse compounds (see below for description) was screened using the THP1-Dual based HTS platform described above. All transfer steps in the screen are fully automated, thus reducing variability. Primary screening included a single data point or dose for each molecule. After data normalization was applied for each assay run, “hit” selection was performed on the plates that pass the quality control (QC) criterion. Hits were defined as samples having values above the activity cutoff determined based on noise level of the assay to reduce false positive rates. In the pilot study discussed above this activity value was >3σ above the ISRE mean with the added criteria of NFκB activation being lower than […] from the mean to identify IRF selective compounds. The ratio of ISRE:NFκB activity was also calculated as a selectivity index for prioritizing hit selection. Primary hits underwent secondary screening to determine the 50% effective concentration (EC50) and 50% cytotoxic concentration (CC50) of these agents using an 8-point dose-response curve in the human THP1-Dual cells. Cytotoxicity was measured in the plate using Cell Titer Glo (Promega). Identified candidate compounds were further screened (orthogonal screen) for cross species activity in the validated mouse J774-Dual assay using an 8-point dose-response format to determine EC50 and CC50 values as well as ISRE:NFκB ratios. A general process flow for the experimental design laid out above is depicted at FIG. 12.

J774-Dual cytotoxicity = assay type: cell-based, mouse; conditions: mouse, J774-Dual cells, read-out: J774 cytotox CC50
Summary of the method: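 Orthogonal cross-species screen in mouse J774-Dual cells using 8-point dose-response format. Cytotoxicity measured in-plate by CellTiter-Glo luminescence, giving CC50 alongside EC50 and ISRE:NFκB ratios.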

[4] = system: NF-κB-SEAP reporter in THP1-Dual cells; assay: THP1-Dual NF-κB-SEAP reporter counterscreen; assay type: cell-based, human; conditions: Homo sapiens, THP1-Dual, read-out: THP1 NFkB EC50
Procedure: as §1, §2
Using the experimental design and data analysis outlined above, optimized assay conditions were obtained. The responsiveness of the human THP-1 Dual cell line was evaluated in an array of assay conditions to obtain sensitive and reproducible results for the activation of IRF and NF-κB reporters. An optimal plating density and differentiation protocol for these cells was established in a 384-well format. All transfer steps are fully automated using high throughput robotic equipment. Briefly, cells are seeded in differentiation medium using a Matrix WellMate fitted with the WellMate Stacker (Thermo Scientific) and incubated at 37° C. with 5% CO2 for 48 h. Following differentiation, cells are washed using a BioTek ELx405 Select CW plate washer and growth medium added with the Matrix WellMate. Programmed control treatments are added to wells using a D300 digital dispenser fitted with T8+ dispense heads (Hewlett Packard) designed to dispense nanoliter quantities of material. Compounds from library plates are added using a pin tool fitted to a Sciclone ALH 3000 Workstation (Caliper Life Sciences) programmed with Maestro v4.4. After treatment, plates are returned to incubators for 24 hours. To measure reporter expression, supernatant is collected using the Sciclone and dispensed into 2 plates: 1) a white 384-well assay plate for Lucia luminescence measurements and 2) a clear-bottom black 384-well assay plate for SEAP absorbance measurements. […]

[5] = Human Reporter Cell Line, 8-point dose response
[6] = J774, Mouse Reporter Cell Line, 8-point dose response
[7] = Mouse Reporter Cell Line J774, at peak
[8] = J774, Mouse Reporter Cell Line J774

Compound | CC50 ([2]; Human Reporter Cell Line) | CC50 (J774-Dual cytotoxicity; Mouse Reporter Cell Line) | EC50 ([1]; Human Reporter Cell Line THP1) | CC50 ([2]; Human Reporter Cell Line THP1) | J774 IRF % activation at peak [3, 7] | EC50 [3, 8] | CC50 (J774-Dual cytotoxicity; Mouse Reporter Cell Line J774) | further results
Cc1cccc(C(=O)Nc2ccc(N3CCN(C(=O)c4cccs4)CC3)cc2)c1C [NA-6] | > 25 µM | > 25 µM |  |  |  |  |  | EC50 [1, 5]: 7.47 µM; J774 IRF % activation at peak ([3]; Mouse Reporter Cell Line): 22.78%; EC50 [3, 6]: 13.1 µM
O=C(Nc1ccc(N2CCN(C(=O)c3cccs3)CC2)cc1)c1ccc2ccccc2c1 [NA-7] | > 25 µM | > 25 µM |  |  |  |  |  | EC50 [1, 5]: 3.91 µM; J774 IRF % activation at peak ([3]; Mouse Reporter Cell Line): 5.638%; EC50 [3, 6]: 4.36 µM
CC(Oc1ccc(C(=O)Nc2ccc(N3CCN(C(=O)c4cccs4)CC3)cc2)cc1)c1ccccc1 (centres unmarked) [NA-22] | > 25 µM | > 25 µM |  |  |  |  |  | EC50 [4, 5]: ~2.62 µM
O=C(Nc1ccc(N2CCN(C(=O)c3cccs3)CC2)cc1)c1ccc2c(c1)OCCO2 [NA-28] | > 25 µM | > 25 µM |  |  |  |  |  | EC50 [4, 5]: 3.02 µM
COc1c(C)cc(Br)cc1C(=O)Nc1ccc(N2CCN(C(=O)c3cccs3)CC2)cc1 [NA-31] | > 25 µM | > 25 µM |  |  |  |  |  | EC50 [4, 5]: ~3.24 µM
COc1ccc(NC(=O)c2cc(NC(=O)c3cccs3)ccc2N2CCOCC2)cc1Cl [NB-22] |  |  | 3.26 µM | > 25 µM | 24.91% | 65 µM | > 25 µM | 
COC(=O)COc1cccc(NC(=O)c2cccc(NC(=O)c3cccs3)c2)c1 [NC-4] | > 25 µM | > 25 µM |  |  |  |  |  | EC50 [1, 5]: 9.88 µM; J774 IRF % activation at peak ([3]; Mouse Reporter Cell Line): 6.428%; EC50 [3, 6]: ~5.88 µM
Cc1cc(C)c2c(N)c(C(=O)Nc3ccc4ccccc4c3)sc2n1 [ND-6] |  |  | 11.9 µM | 49.8 µM | 18.79% | ~7.27 µM | > 25 µM | 
COc1ccc(C(=O)Nc2cc(-c3nc4cc(Cl)ccc4o3)ccc2C)cc1[N+](=O)[O-] [ND-40] |  |  | 2.63 µM | 16.1 µM | 119.6% | 4.5 µM | > 25 µM | 
CCOc1ccc(C(=O)Nc2cc(-c3nc4ncccc4o3)ccc2C)cc1[N+](=O)[O-] [ND-48] |  |  | ~3.05 µM | 7.26 µM | 4.4% | 10 µM | > 25 µM | 
Cc1ccc(-c2nc3cc(Cl)ccc3o2)cc1NC(=O)c1cc([N+](=O)[O-])c(C)c([N+](=O)[O-])c1 [ND-61] |  |  |  | > 25 µM |  |  | > 25 µM | EC50 ([4]; Human Reporter Cell Line THP1): ~5.61 µM
Cc1ccc(-c2nc3cc(OCCCCl)ccc3o2)cc1[N+](=O)[O-] [ND-81] |  |  |  | > 25 µM | 23.19% | ~9.79 µM | > 25 µM | 
Cc1ccc(-c2nc3cc(OCCCN4CCCC4)ccc3o2)cc1N [ND-82] |  |  |  | > 25 µM | 22.57% | ~9.36 µM | > 25 µM | 
COc1cc2nc(-c3ccccc3)nc(N3CCN(CCN4CCCC4)CC3)c2cc1OC [ND-98] |  |  | 3.03 µM | 18.1 µM |  |  | 19.3 µM | 
Cc1ccc(C(=O)Nc2cc(-c3nc4ccccc4s3)ccc2C)c(C)c1 [ND-104] |  |  |  |  |  |  |  | EC50 ([4]; Human Reporter Cell Line THP1): 12.2 µM
